# In US4419358A, “Isethionic acid salt of 9-cyclohexyl-2-propoxy-9H-purine-6-amine and compositions containing an effective bronchodilating concentration of it” (Mead Johnson & Company, priority 1981, dated 1983):
# Read-outs that look alike come from different tables or passages of the source.
# Key:
# Format in all cases: physicochemical
# [1] = Basicity (ability of MJ 13156 to form salts with weak acids); settings: gluconic, lactobionic, acetic, and levulinic acids
# Method: (§1) Preparation of the isethionate salt of MJ 13156 is carried out by treating an equivalent of base in ethyl acetate with 2 equivalents of isethionic acid in ethanol-ethyl acetate solution. Chilling the mixture yields the salt which is collected by filtration. The salt can similarly be prepared by using more concentration solutions of both the acid and the base in ethanol.
# [2] = Dissociation of salts/solvates in water
# Method: as §1
# [3] = Water solubility of salts of MJ 13156 (Table 1, Method A or B); settings: for Solubility: room temperature (about 25° C.)
# Method: More conventional pharmaceutically acceptable acid addition salts of MJ 13156 are not well suited for the present use due to a limited solubility and, in some cases, lack of stability.
# ^1 Solubility data obtained using one of two methods:
# Solubilities of isolated salts determined in standard manner by adding
# H2 O to weighed salt samples and directly obtaining solubility data.
# Solubilities of salts prepared in situ determined by adding a
# moleequivalent of each acid to a 140 mg sample of MJ 13156 and then
# diluting with H2 O in increments to 2.5 mg/mL. A second
# moleequivalent of acid was added to each sample and allowed to stand
# overnight. The precipitates were collected, dried, and weighed to obtain
# [4] = Method B: salts prepared in situ from 140 mg MJ 13156, second moleequivalent of acid added, overnight
# [5] = Method A: H2O added to weighed samples of isolated salts
# [6] = listed as methanesulfonate salt
compound,measurement,setting,value
"CCCOc1nc(N)c2ncn(C3CCCCC3)c2n1 [MJ 13156, 9-cyclohexyl-2-propoxy-9H-purine-6-amine]",base strength (in words),[1],too weak a base to form a salt with these acids
CCCOc1nc(N)c2ncn(C3CCCCC3)c2n1 [acetic acid solvate],dissociation in water (in words),[2],dissociated in water to give MJ 13156 base
CCCOc1nc(N)c2ncn(C3CCCCC3)c2n1 [hydrobromic],Solubility,[3]; [4],1600 µg/mL
CCCOc1nc(N)c2ncn(C3CCCCC3)c2n1 [hydrochloric],Solubility,[3]; [5],1400 µg/mL
"CCCOc1nc(N)c2ncn(C3CCCCC3)c2n1 [isethionic, 9-Cyclohexyl-2-propoxy-9H-purine-6-amine 2-Hydroxyethanesulfonate]",Solubility,[3]; [5],100000 µg/mL
same,water solubility (in words),[3]; listed as isethionate salt,clearly the most soluble of all those prepared
CC(=O)CCC(=O)O [levulinic acid],dissociation in water (in words),[2],dissociated in water to give MJ 13156 base
CCCOc1nc(N)c2ncn(C3CCCCC3)c2n1 [methanesulfonic],Solubility,[3]; [5],8000 µg/mL
same,water solubility (in words),[3]; [6],reasonable water solubility
same,dissociation in water (in words),[2]; [6],dissociates moderately in water
CCCOc1nc(N)c2ncn(C3CCCCC3)c2n1 [nitric],Solubility,[3]; [4],2400 µg/mL
CCCOc1nc(N)c2ncn(C3CCCCC3)c2n1 [phosphoric],Solubility,[3]; [4],1300 µg/mL
CCCOc1nc(N)c2ncn(C3CCCCC3)c2n1 [sulfuric],Solubility,[3]; [4],800 µg/mL
